One may read the IC50 as the midpoint of a concentration-inhibition curve.

For this assay, the target named is T1, UDP-N-acetylmuramoylalanine--D-glutamate ligase (Leptospira interrogans serogroup Icterohaemorrhagiae serovar Lai (strain 56601), UniProt Q8F7V4).
T1 sequence (Q8F7V4 whole entry): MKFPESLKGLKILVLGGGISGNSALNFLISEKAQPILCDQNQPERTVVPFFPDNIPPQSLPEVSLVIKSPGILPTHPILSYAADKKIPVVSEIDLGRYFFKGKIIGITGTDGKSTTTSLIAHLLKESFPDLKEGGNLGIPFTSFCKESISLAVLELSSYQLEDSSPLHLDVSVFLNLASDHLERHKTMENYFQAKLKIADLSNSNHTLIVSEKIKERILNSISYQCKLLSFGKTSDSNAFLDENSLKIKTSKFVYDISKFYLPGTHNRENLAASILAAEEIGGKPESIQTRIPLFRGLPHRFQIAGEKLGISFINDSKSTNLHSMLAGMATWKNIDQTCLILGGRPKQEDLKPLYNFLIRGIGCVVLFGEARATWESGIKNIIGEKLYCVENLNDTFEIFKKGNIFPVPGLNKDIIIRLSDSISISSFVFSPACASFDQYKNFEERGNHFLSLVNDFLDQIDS
Kind of assay: Inhibition Assay. The source says:
Inhibiton assay using MurgD.
The molecule `C[C@H](NS(=O)(=O)Cc1ccc([N+](=O)[O-])cc1)C(=O)N[C@@H](C)P(=O)(O)CC(CCC(=O)O)C(=O)O` (stereo partly drawn) [Phosphinate inhibitor 2] came in with an IC50 of 78 µM. That is a double-digit micromolar value.
`C[C@@H](NC(=O)C=Cc1ccc2c(c1)OCO2)P(=O)(O)CC(CCC(=O)O)C(=O)O` (stereo partly drawn) [Phosphinate inhibitor 1] yielded an IC50 of 95 µM.
In turn, `O=C(O)c1cc(C(=O)O)cc(-c2ccc(/C=C3\SC(=S)N(c4ccc5c(c4)OCO5)C3=O)o2)c1` [Benzene 1,3-dicarvboxylic acid inhibitor] yielded a half-inhibitory concentration (IC50) of 270 µM.

These data come from BindingDB's records for doi:10.1007/s12154-010-0040-8 (Svims University, 2010).
